Consider 40 compounds from patent publication US20240343727A1, “PYRIDAZINONE OR PYRIDINONE COMPOUNDS, PREPARATION METHODS AND USES THEREOF” (InventisBio Co., Ltd., priority 2021, published 2024).

The test addresses T1, PARP7 (Homo sapiens, UniProt Q7Z3E1).
T1 sequence (Q7Z3E1 1-657): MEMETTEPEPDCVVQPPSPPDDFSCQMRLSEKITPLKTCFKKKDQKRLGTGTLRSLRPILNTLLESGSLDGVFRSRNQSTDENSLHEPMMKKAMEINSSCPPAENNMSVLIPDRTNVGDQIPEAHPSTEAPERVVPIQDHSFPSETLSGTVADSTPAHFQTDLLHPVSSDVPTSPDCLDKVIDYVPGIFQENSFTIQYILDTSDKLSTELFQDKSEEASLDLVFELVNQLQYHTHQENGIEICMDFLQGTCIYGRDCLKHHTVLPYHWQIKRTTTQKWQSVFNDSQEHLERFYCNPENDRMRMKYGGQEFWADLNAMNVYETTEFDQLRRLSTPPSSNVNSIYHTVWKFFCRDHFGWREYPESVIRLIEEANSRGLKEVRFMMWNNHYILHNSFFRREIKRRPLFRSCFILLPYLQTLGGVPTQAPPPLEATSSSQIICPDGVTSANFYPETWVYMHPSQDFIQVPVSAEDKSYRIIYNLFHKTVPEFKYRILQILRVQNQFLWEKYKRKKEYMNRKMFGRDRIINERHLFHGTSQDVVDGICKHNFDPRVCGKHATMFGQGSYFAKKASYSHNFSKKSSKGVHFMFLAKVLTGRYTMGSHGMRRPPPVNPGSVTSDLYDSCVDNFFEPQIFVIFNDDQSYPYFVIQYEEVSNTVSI
Briefly: PARP7 TR-FRET assay (binding, displacement of biotinylated Probe A). To be noted: 6 nM PARP7, 2 nM Probe A, 25° C., 30 min. How it is done:
Biological Assay Example A: PARP7 TR-FRET Assay
A time-resolved fluorescence energy transfer (TR-FRET) assay was used to test binding activity of compounds to PARP7. Two microliter test compound was added in 384-well plate. Reactions were performed in a 6 uL volume by adding 4 uL mixture of PARP7 and Probe A (a biotinylated probe binding to the PARP7: N-(6-(2-(4-((2-(6-oxo-5-(trifluoromethyl)-1,6-dihydropyridazin-4-yl) isoindolin-5-yl) oxy) piperidin-1-yl) acetamido) hexyl)-5-((3aS,4S,6aR)-2-oxohexahydro-1H-thieno [3,4-d]imidazol-4-yl) pentanamide, made as reported in WO2019212937A1) in assay buffer (20 mM HEPES pH 8.0, 100 mM NaCl, 0.1% BSA, 2 mM DTT and 0.002% Tween20). The final concentration of PARP7 and Probe A were 6 nM and 2 nM, incubating with test compounds at 25° C. for 30 min. Four microliter ULight-anti 6xHis and LANCE Eu-W1024 labeled streptavidin (PerkinElmer) were added with the final concentration of ULight-anti 6xHis and LANCE Eu-W1024 at 4 nM and 0.25 nM. The reaction mixture was incubated at 25° C. for 30 min. The plate was read on a Tecan Spark plate reader (excitation wavelength at 320 nm, emission wavelength at 615 nm and 665 nm with a 90 us delay. The ratio of the 665/615 nm emission was calculated for each well to the amount of complex of PARP7 and Probe A in each well was calculated. The 0.25% DMSO vehicle was used as control and no PARP7 well was as blank well. Inhibition rate is calculated with the formula of % inhibition=100-100*(TRFcmpd-TRFblank)/(TRFcontrol−TRFblank). Inhibition IC50 is calculated with the equation of Y=Bottom+ (Top-Bottom)/(1+10^((LogIC50−X) *Hill Slope))
For orientation: TR-FRET usually uses a lanthanide donor and a delayed reading to cut background.
Usually IC50 stands for the midpoint of a concentration-inhibition curve. A high value points to weaker potency in that assay. Turning to `O=C(CC1CN(c2n[nH]c(=O)c3ccc(OCC(F)F)cc23)CCO1)N1CCN(c2ncc(C(F)(F)F)cn2)CC1` (single isomer, unassigned) [Compound 211], the concentration for half-maximal inhibition (IC50) was < 100 nM.
For the compound `O=C(COC1CCOc2c1n[nH]c(=O)c2C1CC1)N1CCN(c2ncc(C(F)(F)F)cn2)CC1` (single isomer, unassigned) [Compound 129], the IC50 was > 1000 nM.
In the case of `N#Cc1cnc(N2CCN(C(=O)c3cc(Oc4n[nH]c(=O)c(C(F)(F)F)c4N4CC5(CCC5)C4)ccn3)CC2)nc1` [Compound 273], the IC50 is < 100 nM.
`C[C@@H]1CN(c2n[nH]c(=O)c3c(F)cccc23)C[C@H](CC(=O)N2CCN(c3ncc(C(F)(F)F)cn3)CC2)O1` (stereo in doubt) [Compound 118] registered an IC50 of 100 to 1000 nM.
For `O=C(CC1CN(c2cc(C(F)(F)F)c(=O)[nH]n2)c2ccccc2O1)N1CCN(c2ncc(C(F)F)cn2)CC1` (single isomer, unassigned) [Compound 248], the IC50 is < 100 nM.
Next, `C#Cc1ccc2c(=O)[nH]nc(N3CCOC(CC(=O)N4CCN(c5ncc(C(F)(F)F)cn5)CC4)C3)c2c1` (single isomer, unassigned) [Compound 195]: < 100 nM.
For the compound `O=C(CC1CN(c2cc(C(F)(F)F)c(=O)[nH]n2)c2ccncc2O1)N1CCN(c2ncc(C(F)(F)F)cn2)CC1` (stereo not shown) [Compound 347], the IC50 was < 100 nM.
Next, `COC1CN(c2c(Oc3cccc(C(=O)N4CCN(c5ncc(C(F)(F)F)cn5)CC4)c3)n[nH]c(=O)c2C(F)(F)F)C1` [Compound 166]: < 100 nM.
Next, `Cc1c(Nc2cccc(C(=O)N3CCN(c4ncc(C(F)(F)F)cn4)CC3)c2)n[nH]c(=O)c1C(F)(F)F` [Compound 76]: < 100 nM; `O=C(c1cccc(Oc2n[nH]c(=O)c(C(F)(F)F)c2C2CC2)c1)N1CCN(c2ncc(C(F)(F)F)cn2)CC1` [Compound 173]: < 100 nM; `Cn1ccc(-c2ccc3c(=O)[nH]nc(N4CCOC(CC(=O)N5CCN(c6ncc(C(F)(F)F)cn6)CC5)C4)c3c2)n1` (single isomer, unassigned) [Compound 259]: < 100 nM.
As to `O=C(CC1CN(c2cc(C(F)(F)F)c(=O)[nH]n2)c2cc(F)ccc2O1)N1CCN(c2ncc(Br)cn2)CC1` (stereo not shown) [Compound 142], the IC50 is < 100 nM.
As to `C[C@@H]1CN(C(=O)CC2CN(c3cc(C(F)(F)F)c(=O)[nH]n3)c3cc(F)ccc3O2)CCN1c1ncc(C#N)cn1` (single isomer, unassigned) [Compound 325], the 50% inhibitory concentration (IC50) was < 100 nM.
The value for `Cc1ccc(Oc2n[nH]c(=O)c(C(F)(F)F)c2C)cc1C(=O)N1CCN(c2ncc(C(F)(F)F)cn2)CC1` [Compound 65] was < 100 nM; that for `CN1CC2(C1)CN(c1c(Oc3cccc(C(=O)N4CCN(c5ncc(C(F)(F)F)cn5)CC4)c3)n[nH]c(=O)c1C(F)(F)F)C2` [Compound 69] was < 100 nM; that for `N#Cc1ccc(N2CCN(C(=O)CC3CN(c4cc(C(F)(F)F)c(=O)[nH]n4)c4ccccc4O3)CC2)nc1` (single isomer, unassigned) [Compound 221] was < 100 nM.
For the compound `C[C@H]1CN(c2ncc(C(F)(F)F)cn2)CCN1C(=O)c1cccc(Oc2n[nH]c(=O)c(C(F)(F)F)c2N2CC3(CCO3)C2)c1` [Compound 255], the IC50 was < 100 nM.
`O=C(c1cccc(Oc2n[nH]c(=O)c(C(F)(F)F)c2C#CC2CC2)c1)N1CCN(c2ncc(C(F)(F)F)cn2)CC1` [Compound 139]: the IC50 is 100 to 1000 nM.
In the case of `O=C(c1cccc(Oc2n[nH]c(=O)c(C(F)(F)F)c2N2CC3(CCC3)C2)c1)N1CCN(c2ncc(OC(F)(F)F)cn2)CC1` [Compound 276], the IC50 was < 100 nM.
For the compound `C[C@@H]1CN(C(=O)c2cncc(Oc3n[nH]c(=O)c(C(F)(F)F)c3N3CC4(C3)CC(F)(F)C4)c2)CCN1c1ncc(C(F)(F)F)cn1` [Compound 314], the IC50 is < 100 nM.
The value for `O=C(OC1CN(c2cc(C(F)(F)F)c(=O)[nH]n2)CCC1(F)F)N1CCN(c2ncc(C(F)(F)F)cn2)CC1` (single isomer, unassigned) [Compound 81] was < 100 nM; that for `Cc1c(Oc2cccc(C(=O)N3CCN(c4ncc(C(F)(F)F)s4)CC3)c2)n[nH]c(=O)c1C(F)(F)F` [Compound 66] was < 100 nM; that for `CS(=O)(=O)c1ccc2c(c1)N(c1cc(C(F)(F)F)c(=O)[nH]n1)CC(CC(=O)N1CCN(c3ncc(C(F)(F)F)cn3)CC1)O2` (single isomer, unassigned) [Compound 206] was < 100 nM.
For the compound `C#Cc1cnc(N2CCN(C(=O)c3cc(Oc4n[nH]c(=O)c(C(F)(F)F)c4N4CC5(C4)CC(F)(F)C5)ccn3)CC2)nc1` [Compound 317], the IC50 is < 100 nM.
In the case of `O=C(c1cncc(Oc2n[nH]c(=O)c(C(F)(F)F)c2N2CC3(CCC3)C2)c1)N1CCN(c2ncc(C(F)(F)F)cn2)CC1` [Compound 84], the 50% inhibitory concentration (IC50) was < 100 nM.
For `CNC1CC(Nc2c(Oc3cccc(C(=O)N4CCN(c5ncc(C(F)(F)F)cn5)CC4)c3)n[nH]c(=O)c2C(F)(F)F)C1` (stereo not shown) [Compound 171], the IC50 is 100 to 1000 nM.
On to `C[C@H]1CN(c2n[nH]c(=O)c3cccc(F)c23)C[C@@H](CC(=O)N2CCN(c3ncc(C(F)(F)F)cn3)CC2)O1` (stereo in doubt) [Compound 120], for which the IC50 fell in the range of 100 to 1000 nM.
Next, `O=C(c1cccc(Oc2n[nH]c(=O)c(C(F)(F)F)c2N2CC3(CCC3)C2)c1)N1CCN(c2ncc(C(F)(F)F)cn2)CC1` [Compound 70]: < 100 nM; `O=C(c1cncc(Oc2n[nH]c(=O)c(C(F)(F)F)c2N2CC3(C2)CC(F)(F)C3)c1)N1CCN(c2ncc(Cl)cn2)CC1` [Compound 277]: < 100 nM.
With `C[C@@H]1C[C@@H](OCC(=O)N2CCN(c3ncc(C(F)(F)F)cn3)CC2)c2n[nH]c(=O)c(C(F)(F)F)c2O1` [Compound 56], the IC50 is < 100 nM.
Regarding `N#CC1(c2ccc3c(c2)N(c2cc(C(F)(F)F)c(=O)[nH]n2)CC(CC(=O)N2CCN(c4ncc(C(F)(F)F)cn4)CC2)O3)CC1` (single isomer, unassigned) [Compound 338], the IC50 was < 100 nM.
Turning to `COCC(=O)Nc1ccc2c(c1)N(c1cc(C(F)(F)F)c(=O)[nH]n1)CC(CC(=O)N1CCN(c3ncc(C(F)(F)F)cn3)CC1)O2` (single isomer, unassigned) [Compound 283], the IC50 was < 100 nM.
`O=C(c1cccc(Oc2n[nH]c(=O)c(C(F)(F)F)c2N2CC(C(F)F)C2)c1)N1CCN(c2ncc(C(F)(F)F)cn2)CC1` [Compound 72]: the half-maximal inhibitory concentration (IC50) is < 100 nM.
The value for `C[C@@H]1CN(C(=O)c2cc(Oc3n[nH]c(=O)c(C(F)(F)F)c3N3CC4(C3)CC(F)(F)C4)ccn2)CCN1c1ncc(C(F)(F)F)cn1` [Compound 318] was < 100 nM; that for `C#Cc1c2c(n[nH]c1=O)[C@H](OCC(=O)N1CCN(c3ncc(C(F)(F)F)cn3)CC1)CCO2` [Compound 12] was < 100 nM; that for `C#Cc1cc(N2CCOC(CC(=O)N3CCN(c4ncc(C(F)(F)F)cn4)CC3)C2)n[nH]c1=O` (single isomer, unassigned) [Compound 44] was 100 to 1000 nM.
Next, `O=C(CC1CN(c2cc(C(F)(F)F)c(=O)[nH]n2)c2cc(N3CCOCC3=O)ccc2O1)N1CCN(c2ncc(C(F)(F)F)cn2)CC1` (single isomer, unassigned) [Compound 282]: < 100 nM.
Next, `O=C(CC1CN(c2n[nH]c(=O)c3ccc(Cl)cc23)CCO1)N1CCN(c2ncc(C(F)(F)F)cn2)CC1` (single isomer, unassigned) [Compound 100]: < 100 nM; `O=C(c1cccc(Oc2n[nH]c(=O)c(C(F)(F)F)c2N2CC3(C2)CC(F)(F)C3)c1)N1CCN(c2ncc(C(F)(F)F)cn2)CC1` [Compound 175]: < 100 nM; `CC(C)(O)c1cnc(N2CCN(C(=O)CC3CN(c4cc(C(F)(F)F)c(=O)[nH]n4)c4cc(F)ccc4O3)CC2)nc1` (single isomer, unassigned) [Compound 351]: < 100 nM.
